Reference: PubChem BioAssay (NCI)
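Five concentrations, 48 hours, 96-well plates. TGI: concentration producing complete growth inhibition.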

Tests used:
Assay in all cases: DTP human tumour cell line panel, 48 h
MOLT-4 leukemia = test system: MOLT-4 leukemia
SF-539 CNS = test system: SF-539 CNS
OVCAR-3 ovarian = test system: OVCAR-3 ovarian
NCI/ADR-RES ovarian = test system: NCI/ADR-RES ovarian
SK-MEL-2 melanoma = test system: SK-MEL-2 melanoma
UACC-62 melanoma = test system: UACC-62 melanoma
OVCAR-5 ovarian = test system: OVCAR-5 ovarian
TK-10 renal = test system: TK-10 renal
NCI-H460 lung = test system: NCI-H460 lung
SF-268 CNS = test system: SF-268 CNS
IGROV1 ovarian = test system: IGROV1 ovarian
HL-60(TB) leukemia = test system: HL-60(TB) leukemia
M14 melanoma = test system: M14 melanoma
U251 CNS = test system: U251 CNS
NCI-H23 lung = test system: NCI-H23 lung
NCI-H226 lung = test system: NCI-H226 lung

SMILES: O=C(CCC(=O)c1ccsc1)c1ccsc1
- TGI (MOLT-4 leukemia): > 100 µM
- TGI (SF-539 CNS): > 100 µM
- TGI (OVCAR-3 ovarian): > 100 µM
- TGI (NCI/ADR-RES ovarian): > 100 µM
- TGI (SK-MEL-2 melanoma): > 100 µM
- TGI (UACC-62 melanoma): > 100 µM
- TGI (OVCAR-5 ovarian): > 100 µM
- TGI (TK-10 renal): > 100 µM
- TGI (NCI-H460 lung): > 100 µM
- TGI (SF-268 CNS): > 100 µM
- TGI (IGROV1 ovarian): > 100 µM
- TGI (HL-60(TB) leukemia): > 100 µM
- TGI (M14 melanoma): > 100 µM
- TGI (U251 CNS): > 100 µM
- TGI (NCI-H23 lung): > 100 µM
- TGI (NCI-H226 lung): > 100 µM

SMILES: COc1ccc2c(c1)/C(=C/c1c(O)[nH]c(=S)[nH]c1=O)C=N2
- TGI (MOLT-4 leukemia): > 100 µM
- TGI (SF-539 CNS): > 100 µM
- TGI (OVCAR-3 ovarian): > 100 µM
- TGI (NCI/ADR-RES ovarian): > 100 µM
- TGI (SK-MEL-2 melanoma): > 100 µM
- TGI (UACC-62 melanoma): > 100 µM
- TGI (OVCAR-5 ovarian): > 100 µM
- TGI (TK-10 renal): > 100 µM
- TGI (NCI-H460 lung): > 100 µM
- TGI (SF-268 CNS): 61.8 µM
- TGI (IGROV1 ovarian): > 100 µM
- TGI (HL-60(TB) leukemia): > 100 µM
- TGI (M14 melanoma): > 100 µM
- TGI (U251 CNS): > 100 µM
- TGI (NCI-H23 lung): > 100 µM
- TGI (NCI-H226 lung): > 100 µM

SMILES: CC(CN1NC12CCCC2)N1NC12CCCC2 (centres undefined)
- TGI (MOLT-4 leukemia): > 100 µM
- TGI (SF-539 CNS): > 100 µM
- TGI (OVCAR-3 ovarian): > 100 µM
- TGI (NCI/ADR-RES ovarian): > 100 µM
- TGI (SK-MEL-2 melanoma): > 100 µM
- TGI (UACC-62 melanoma): > 100 µM
- TGI (OVCAR-5 ovarian): > 100 µM
- TGI (TK-10 renal): > 100 µM
- TGI (NCI-H460 lung): > 100 µM
- TGI (SF-268 CNS): > 100 µM
- TGI (IGROV1 ovarian): > 100 µM
- TGI (HL-60(TB) leukemia): > 100 µM
- TGI (M14 melanoma): > 100 µM
- TGI (U251 CNS): > 100 µM
- TGI (NCI-H23 lung): > 100 µM
- TGI (NCI-H226 lung): > 100 µM

SMILES: CCCc1nnc2sc(COc3ccc(OCc4nn5c(CCC)nnc5s4)c(Cl)c3)nn12
- TGI (MOLT-4 leukemia): > 100 µM
- TGI (SF-539 CNS): > 100 µM
- TGI (OVCAR-3 ovarian): > 100 µM
- TGI (NCI/ADR-RES ovarian): > 100 µM
- TGI (SK-MEL-2 melanoma): > 100 µM
- TGI (UACC-62 melanoma): 59.4 µM
- TGI (OVCAR-5 ovarian): > 100 µM
- TGI (TK-10 renal): 93.5 µM
- TGI (NCI-H460 lung): 78.1 µM
- TGI (SF-268 CNS): > 100 µM
- TGI (IGROV1 ovarian): > 100 µM
- TGI (HL-60(TB) leukemia): 40.9 µM
- TGI (M14 melanoma): 73 µM
- TGI (U251 CNS): > 100 µM
- TGI (NCI-H23 lung): > 100 µM
- TGI (NCI-H226 lung): > 100 µM

SMILES: COC(=O)NC(=O)NC(Cc1ccccc1)NC(=O)OCc1ccccc1 (centres undefined)
- TGI (MOLT-4 leukemia): > 100 µM
- TGI (SF-539 CNS): 71.4 µM
- TGI (OVCAR-3 ovarian): > 100 µM
- TGI (NCI/ADR-RES ovarian): > 100 µM
- TGI (SK-MEL-2 melanoma): > 100 µM
- TGI (UACC-62 melanoma): > 100 µM
- TGI (OVCAR-5 ovarian): > 100 µM
- TGI (TK-10 renal): > 100 µM
- TGI (NCI-H460 lung): > 100 µM
- TGI (SF-268 CNS): > 100 µM
- TGI (IGROV1 ovarian): > 100 µM
- TGI (HL-60(TB) leukemia): > 100 µM
- TGI (M14 melanoma): > 100 µM
- TGI (U251 CNS): > 100 µM
- TGI (NCI-H23 lung): > 100 µM
- TGI (NCI-H226 lung): > 100 µM

SMILES: CC(C)=CCC[C@@H](C)[C@H]1CC[C@@]2(C)[C@@H]3CC[C@H]4C(C)(C)[C@@H](O)CC[C@@]45C[C@@]35CC[C@]12C
- TGI (MOLT-4 leukemia): > 87.2 µM
- TGI (SF-539 CNS): > 70.9 µM
- TGI (OVCAR-3 ovarian): > 100 µM
- TGI (NCI/ADR-RES ovarian): 62.1 µM
- TGI (SK-MEL-2 melanoma): > 100 µM
- TGI (UACC-62 melanoma): > 100 µM
- TGI (OVCAR-5 ovarian): > 100 µM
- TGI (TK-10 renal): > 100 µM
- TGI (NCI-H460 lung): 39.8 µM
- TGI (SF-268 CNS): > 76.4 µM
- TGI (IGROV1 ovarian): 40.5 µM
- TGI (HL-60(TB) leukemia): > 95.4 µM
- TGI (M14 melanoma): > 85.1 µM
- TGI (U251 CNS): 31.1 µM
- TGI (NCI-H23 lung): 50.7 µM
- TGI (NCI-H226 lung): > 74.5 µM

SMILES: C=CCN1C(=O)CC2[C@@H]3CCc4cc(O)ccc4C3CC[C@]2(C)C1=O (some centres undefined)
- TGI (MOLT-4 leukemia): > 10 µM
- TGI (SF-539 CNS): > 10 µM
- TGI (OVCAR-3 ovarian): > 10 µM
- TGI (NCI/ADR-RES ovarian): > 10 µM
- TGI (SK-MEL-2 melanoma): > 10 µM
- TGI (UACC-62 melanoma): > 10 µM
- TGI (OVCAR-5 ovarian): > 10 µM
- TGI (TK-10 renal): > 10 µM
- TGI (NCI-H460 lung): > 10 µM
- TGI (SF-268 CNS): > 10 µM
- TGI (IGROV1 ovarian): > 10 µM
- TGI (HL-60(TB) leukemia): > 10 µM
- TGI (M14 melanoma): > 10 µM
- TGI (U251 CNS): > 10 µM
- TGI (NCI-H23 lung): > 10 µM
- TGI (NCI-H226 lung): > 10 µM

SMILES: O=C(CNc1ccccc1[N+](=O)[O-])Nn1cnc2ccc(S(=O)(=O)Nc3ccccc3[N+](=O)[O-])cc2c1=O
- TGI (MOLT-4 leukemia): > 100 µM
- TGI (SF-539 CNS): > 100 µM
- TGI (OVCAR-3 ovarian): > 100 µM
- TGI (NCI/ADR-RES ovarian): > 100 µM
- TGI (SK-MEL-2 melanoma): > 100 µM
- TGI (UACC-62 melanoma): > 100 µM
- TGI (OVCAR-5 ovarian): > 100 µM
- TGI (TK-10 renal): > 100 µM
- TGI (NCI-H460 lung): > 100 µM
- TGI (SF-268 CNS): > 100 µM
- TGI (IGROV1 ovarian): > 100 µM
- TGI (HL-60(TB) leukemia): > 100 µM
- TGI (M14 melanoma): > 100 µM
- TGI (U251 CNS): > 100 µM
- TGI (NCI-H23 lung): > 100 µM
- TGI (NCI-H226 lung): > 100 µM

SMILES: CCCCNC(=O)OCCN=c1c2ccccc2ccc2ccccc12
- TGI (MOLT-4 leukemia): > 100 µM
- TGI (SF-539 CNS): > 100 µM
- TGI (OVCAR-3 ovarian): > 100 µM
- TGI (NCI/ADR-RES ovarian): > 100 µM
- TGI (SK-MEL-2 melanoma): > 100 µM
- TGI (UACC-62 melanoma): > 100 µM
- TGI (OVCAR-5 ovarian): > 100 µM
- TGI (TK-10 renal): > 100 µM
- TGI (NCI-H460 lung): > 100 µM
- TGI (SF-268 CNS): > 100 µM
- TGI (IGROV1 ovarian): > 100 µM
- TGI (HL-60(TB) leukemia): > 100 µM
- TGI (M14 melanoma): > 100 µM
- TGI (U251 CNS): > 100 µM
- TGI (NCI-H23 lung): > 100 µM
- TGI (NCI-H226 lung): > 100 µM
